# Test results from patent US20230014181A1, “CULTURE SYSTEM AND METHODS FOR IMPROVED MODELING OF NEUROLOGICAL CONDITIONS” (Genentech, Inc., priority 2021, published 2023).
# Where two headings read alike, the source gives them in different places. Where a SMILES comes first, the peptide text is derived from it. The star is where a group is joined. Cbz = O=C(OCc1ccccc1)*
# Key:
# soluble Aβ42 species = test: Anti-Aβ antibody co-treatment rescue of soluble Aβ42 species neurotoxicity in iPSC neurons; assay type: cell-based, human
# Protocol: (§1) Error bars+/−s.e.m. and n=4 wells.
# To investigate whether AD pathologies can be studied in a controlled, in vitro system of human neurons, cultured human iPSC-derived neurons were treated with synthetic Aβ42 oligomers, prepared by oligomerization of Aβ42 monomers at 4° C. following previously published protocols (FIG. 2A; following Stine et al., 2011). Briefly, AggreSure™ β-Amyloid (1-42), human monomers (Anaspec) were resuspended in DMSO followed by PBS to form a 100 μM solution. Aβ42 monomers were subsequently incubated at 4° C. for 24 hours, then frozen at −80° C. to stop the oligomerization process. Five to six lots of Aβ42 monomers were screened at time and assessed for neurotoxic and the degree of toxicity. About twenty lots for screened in the course of 4 years. For fluorescent Aβ42 oligomer experiments, Beta-Amyloid (1-42), HiLyte™ Fluor 555-labeled, Human (Anaspec) was used. […]
# Several additional tau phosphorylation sites observed in AD, S396/404, S217, S235, S400/T403/S404, and T181, were hyperphosphorylated when treated with Aβ42 oligomers (FIGS. 4V-4Z). […] Using this quantitative platform, the half-maximal inhibitory concentration (IC50) for anti-Aβ antibody rescue of MAP2, synapsin, and pTau induction was generated (FIG. 3R).
# primary human astrocytes = test: Astrocyte GFAP expression in response to soluble Aβ species; assay type: cell-based; settings: astrocytes cultured alone; 3DIV
# Protocol: Error bars+/−s.e.m. and n=4 wells; ANOVA ****P<0.0001, ***P<0.001, **P<0.01.
# Astrocytes were then validated. Briefly, primary human astrocytes were detached using Accumax (Innovative Cell Technologies) and seeded onto 384-well plates coated with 1:100 Geltrex™ (Thermofisher) solution for at least 1 hour in a 37° C. cell incubator. Cells were seeded at a density of 2,000 cells/well in Neuron Maintenance Medium (1× BrainPhys™ Basal (StemCell Technology), 1× B27 with Vitamin A, 1×N-2, 5 μg/mL cholesterol, 1 mM creatine, 10 nM β-estradiol, 200 nM ascorbic acid, 1 mM cAMP (Sigma-Aldrich), 20 ng/mL BDNF, 20 ng/mL GDNF, 1 μg/mL Laminin, 0.5 mM GlutaMAX™ (Thermofisher), 1 ng/mL TGF-β1, 1× normocin, 50 U/mL penicillin-streptomycin). Cells were placed in 37° C. cell incubator for 24 hours to allow for attachment. Aβ42 and antibody treatments were added as described in other Examples. Astrogliosis was validated was validated by immunostaining of the following markers: Guinea Pig anti GFAP (1:500), Rabbit anti EAAT1 (1:500), Rabbit anti vimentin (1:500), Rabbit ALDH1L1 (1:500).
# [1] = system: Aβ42 oligomer-induced neural toxicity in human iPSC neurons; test: Hit validation by IC50 curves in double culture (MAP2, Synapsin 1/2, CUX2, NFL-H); assay type: cell-based; settings: dose response
# Protocol: (§2) Error bars+/−s.e.m. and n=4 wells. IC50 curves were fitted by Prism software.
# as §2
# Error bars+/−s.e.m. and n=4 wells. IC50 curves were fitted using Prism software.
# To further validate this pathway, several known inhibitors of kinases in the DLK signaling pathway were tested to determine whether they could also be neuroprotective in the AD model.
# [2] = system: human iPSC-derived microglia treated with 5 μM soluble Aβ species; test: Microglia plaque formation (Methoxy-X04-positive structures) with dynamin inhibitors; assay type: cell-based; settings: 0.6 μM for 24 h
# Protocol: Error bars+/−s.e.m. and n=4 wells; ANOVA ***P<0.001, **P<0.01.
# iPSC derived microglia were obtained and screened for microglia marker expression. iPSC microglia were then differentiated. Briefly, iPSCs were treated with BMP, FGF and activin for 2-4 days to induce mesoderm fate, then treated with VEGF and supportive hematopoietic cytokines for 6-10 days to generate hematopoietic progenitors (HPCs). HPCs were seeded onto matrigel-coated flasks, and treated with IL-34, IDE1 (TGF-β1 agonist), and M-CSF for 3-4 weeks to differentiate into microglia. Human iPSC microglia were validated by immunostaining of the following markers: Goat anti-TREM2 (1:500), Mouse anti-MERTK (1:500), Rabbit anti-IBA1 (1:1000), Rabbit anti-TMEM119 (1:500), CD33 (1:500), CX3CR1 (1:500), CD64 (1:500), P2RY12 (1:500), CD32 (1:500), PU.1 (1:500).
# To further confirm time-lapsed result, an immunostaining time-course study was performed. Microglia took up Aβs within 30 minutes (FIG. 14D). After 6 hours, small internalized puncta disappeared and a larger, faintly X04 positive, Aβ42 aggregate appeared at the edge near each cell (FIG. 14D). After 1 day, larger Aβ42 aggregates with higher X04 staining intensity were seen next to microglia, and additional microglia began to surround these aggregates. At 4 days X04 dye positive plaque structures were present with surrounding microglia. […]
# [3] = system: human iPSC-derived neurons; test: 21-day time course of single doses of soluble Aβ42 species on iPSC neurons; assay type: cell-based; settings: 1.25 μM
# Protocol: To investigate whether AD pathologies can be studied in a controlled, in vitro system of human neurons, cultured human iPSC-derived neurons were treated with synthetic Aβ42 oligomers, prepared by oligomerization of Aβ42 monomers at 4° C. following previously published protocols (FIG. 2A; following Stine et al., 2011). Briefly, AggreSure™ β-Amyloid (1-42), human monomers (Anaspec) were resuspended in DMSO followed by PBS to form a 100 μM solution. Aβ42 monomers were subsequently incubated at 4° C. for 24 hours, then frozen at −80° C. to stop the oligomerization process. Five to six lots of Aβ42 monomers were screened at time and assessed for neurotoxic and the degree of toxicity. […] For fluorescent Aβ42 oligomer experiments, Beta-Amyloid (1-42), HiLyte™ Fluor 555-labeled, Human (Anaspec) was used. For pHrodo experiments, Beta-Amyloid (1-42) buman was labeled with pHrodo™ Green AM Intracellular pH Indicator (Invitrogen) according to manufacturer's protocol.
# Prior to experimentation, media volume in wells containing neurons was equalized with liquid handling automation (Bravo) in order to ensure precise control of concentrations. All Aβ42 oligomers, anti-Aβ, small molecules, inflammatory cytokines were prepared at 10× concentration and added to Neuronal Culture Media at an appropriate volume. […]
# [4] = system: primary rat cortical neurons; test: Aβ42 oligomer toxicity in primary rat cortical neurons; assay type: cell-based; settings: several lots
# Protocol: as §1
# The preps were determined to contain a heterogeneous mixture of both soluble oligomer and fibrils, and thus were referred to as “soluble Aβ42 species” (Aps).
# [5] = system: human iPSC neurons and astrocytes treated with 5 μM sAβ42s; test: Focused small molecule screen, double culture (neuron, astrocyte), rescue from sAβ42s toxicity, high content imaging; assay type: cell-based; settings: Homo sapiens, iPSC, double culture, 5 μM sAβ42s; for percent rescue from sAβ42s toxicity at 6.25 µM: 6.25 μM compound; for percent rescue from sAβ42s toxicity at 12.5 µM: 12.5 μM compound; for percent rescue from sAβ42s toxicity at 25 µM: 25 μM compound; for percent rescue from sAβ42s toxicity at 50 µM: 50 μM compound
# Outline: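 Human iPSC neuron–astrocyte cultures given 5 μM sAβ42 oligomers plus compounds at 50, 25, 12.5 and 6.25 μM (10× additions). Fixed cells immunostained for MAP2, synapsin 1/2, CUX2 and beta III tubulin, imaged by confocal high-content microscopy; % rescue computed, ≥30% in any readout scored as hit.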
# [6] = system: human iPSC neurons, astrocytes and microglia treated with 5 μM sAβ42s; test: Focused small molecule screen, triple culture (neuron, astrocyte, microglia), rescue from sAβ42s toxicity; assay type: cell-based; settings: Homo sapiens, iPSC; for percent rescue from sAβ42s toxicity at 12.5 µM: 12.50 μM compound; for percent rescue from sAβ42s toxicity at 50 µM: 50.00 μM compound
# Outline: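 Human iPSC neuron-astrocyte co-cultures (8 weeks old), with or without added iPSC microglia (8,000 cells/well), were exposed to 5 μM sAβ42s together with compounds at up to four concentrations: 50–6.25 μM for double cultures and 50–0.78 μM for triple cultures. Rescue of MAP2, synapsin 1/2, CUX2 count or axon (NFL-H/βIII-tubulin) readouts of ≥30% was scored as a hit.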
compound,measurement,setting,value
Crenezumab: anti-Aβ antibody,phospho-Tau p396-404 and p400-403-404 upregulation,soluble Aβ42 species; NAG-NSC Line 2,blocked
same,loss of dendrites (MAP2) and synapses (synapsin),"soluble Aβ42 species; NAG-NSC Line 2 and primary astrocytes, 5 μM soluble Aβ species, 7 days",rescued
same,GFAP upregulation by soluble Aβ species,primary human astrocytes,blocked
Cc1cc(Nc2cc(N3CCN(C)CC3)nc(Sc3ccc(NC(=O)C4CC4)cc3)n2)n[nH]1 [VX-680],neuronal protection against Aβ,[1],conferred neuronal protection against Aβ in a dose-dependent manner
CCCCCCCCNC(=O)/C(C#N)=C/c1cn(CCCN(C)C)c2ccccc12 [Dynole 34-2],decrease of plaque formation (Methoxy-X04-positive plaque-like structures),[2],approximately 4 fold
soluble Aβ42 species: heterogeneous mixture of soluble oligomer and fibrils made from synthetic Aβ42 monomers at 4° C.,dendrite or axon reduction,[3],no effect on dendrite or axon reduction
same,reduction in dendrites or synapses,[4],did not show reduction in dendrites or synapses
Nc1ncc(C(=O)NC2CN(C(=O)C3CC3)C2)c2ccc(-c3cccc(F)c3)nc12 [GNE-495],neuronal protection against Aβ,[1],conferred neuronal protection against Aβ in a dose-dependent manner
Cc1cc(NC(=O)c2cccc(NC(=O)/C=C/CN(C)C)c2)ccc1Nc1nccc(-c2cccnc2)n1 [JNK-IN-8],neuronal protection against Aβ,[1],conferred neuronal protection against Aβ in a dose-dependent manner
O=C(N/N=C/c1ccc(O)c(O)c1)c1cc2ccccc2cc1O [Dynasore],decrease of plaque formation (Methoxy-X04-positive plaque-like structures),[2],approximately 4 fold
Nc1ccc(-c2cnc(N)c(-c3ccc(Cl)cc3)c2)cn1 [PF06260933],neuronal protection against Aβ,[1],conferred neuronal protection against Aβ in a dose-dependent manner
CC(C)C[C@@H](C=O)NC(=O)[C@H](CC(C)C)NC(=O)[C@H](CC(C)C)NC(=O)OCc1ccccc1 [MG-132] (Cbz-Leu-Leu-Leu-aldehyde),percent rescue from sAβ42s toxicity at 6.25 µM,[5]; read-out: % B3T rescue,-3%
same,percent rescue from sAβ42s toxicity at 6.25 µM,[5]; read-out: % Cux2 rescue,80%
same,percent rescue from sAβ42s toxicity at 6.25 µM,[5]; read-out: % MAP2 rescue,18%
same,percent rescue from sAβ42s toxicity at 6.25 µM,[5]; read-out: % Synapse rescue,-6%
same,percent rescue from sAβ42s toxicity at 12.5 µM,[5]; read-out: % B3T rescue,7%
same,percent rescue from sAβ42s toxicity at 12.5 µM,[5]; read-out: % Cux2 rescue,87%
same,percent rescue from sAβ42s toxicity at 12.5 µM,[5]; read-out: % MAP2 rescue,24%
same,percent rescue from sAβ42s toxicity at 12.5 µM,[5]; read-out: % Synapse rescue,4%
same,percent rescue from sAβ42s toxicity at 25 µM,[5]; read-out: % B3T rescue,30%
same,percent rescue from sAβ42s toxicity at 25 µM,[5]; read-out: % Cux2 rescue,91%
same,percent rescue from sAβ42s toxicity at 25 µM,[5]; read-out: % MAP2 rescue,26%
same,percent rescue from sAβ42s toxicity at 25 µM,[5]; read-out: % Synapse rescue,8%
same,percent rescue from sAβ42s toxicity at 50 µM,[5]; read-out: % B3T rescue,57%
same,percent rescue from sAβ42s toxicity at 50 µM,[5]; read-out: % Cux2 rescue,90%
same,percent rescue from sAβ42s toxicity at 50 µM,[5]; read-out: % MAP2 rescue,25%
same,percent rescue from sAβ42s toxicity at 50 µM,[5]; read-out: % Synapse rescue,4%
same,percent rescue from sAβ42s toxicity at 12.5 µM,[6]; read-out: % B3T rescue,35%
same,percent rescue from sAβ42s toxicity at 12.5 µM,[6]; read-out: % MAP2 rescue,18%
same,percent rescue from sAβ42s toxicity at 12.5 µM,[6]; read-out: % Synapse rescue,-7%
same,percent rescue from sAβ42s toxicity at 50 µM,[6]; read-out: % B3T rescue,46%
same,percent rescue from sAβ42s toxicity at 50 µM,[6]; read-out: % MAP2 rescue,25%
same,percent rescue from sAβ42s toxicity at 50 µM,[6]; read-out: % Synapse rescue,-11%
